Test results taken from patent US20210308028A1, “Compositions and Methods for Maintaining and Protecting Tissue Integrity and Barrier Function” (Colgate-Palmolive Company, priority 2020, published 2021).
Where a name gives a salt, the structure may show the parent alone.

Legend:
[1] = system: in vitro oral mucosa model; conditions: Rybakovsky 2017; cited from earlier work
[2] = system: intestinal epithelial barrier; conditions: Sarkar 2019; in vivo (mouse) and in vitro models; cited from earlier work
[3] = system: Mattek Epigingival tissues; assay: TER of Epigingival tissues upon sodium lauryl sulfate (SLS) challenge; assay type: cell-based, human
Text: Cell junctions are intercellular pathways that selectively permit the movement of molecules through cellular layers. In terms of biological function, cell junctions form a barrier between apical and basolateral cell surfaces and are crucial in the development and function of epithelial tissues. The ion permeability of cell junctions can be measured through a voltmeter in the form of Trans Epithelial Electric Resistance (TER). Measurements are quickly determined through an electrode with little to no disturbance to the cell layers. The resistance correlates to the integrity of the tissue, and confluent tissue layers with intact cell junctions lead to higher TER readings.
Epigingival tissues were purchased from Mattek Corporation for use in the experiment. These multilayered epithelial cells imitate human gingival tissue in-vivo and can withstand high concentrations of toothpaste solutions. Once the tissues arrived in the laboratory, individual tissues were reconstituted in 1 mL of Mattek provided GIN-100 maintenance medium overnight at 37° C. and 5% CO2 before testing of samples. The medium was changed every day after treatment.
TER measurement experiment was performed comparing the neat active ingredients in solution and their effects on the physical integrity of Mattek Epigingival tissues. […]

[4] = system: intestinal mucosal barrier; conditions: reported; cited from earlier work
[5] = system: gingival keratinocyte barrier; conditions: previously reported; cited from earlier work
[6] = system: B11 gingival keratinocytes treated with TNF-α; assay: TER with TNF-α challenge; assay type: cell-based, human; conditions: TNF-α 100 ng/ml
Description: Tight junction integrity was assessed by determining the trans-epithelial electrical resistance (TER). B11 gingival keratinocytes were seeded onto Costar™ Transwell™ clear polyester membrane inserts (6.5-mm diameter; 0.4-μm pore size; Corning Co., Cambridge, Mass., USA) at 3×10^5 cells per insert. The basolateral and apical compartments were filled with 0.6 mL and 0.1 mL of complete K-SFM, respectively. Following a 72-h incubation, the conditioned medium was replaced with antibiotic-free K-SFM, and the cells were incubated for a further 16 h. The TER values were measured using an Ohm/voltmeter (EVOM2; World Precision Instruments, Sarasota, Fla., USA) at 0, 4, 8, 24, 48, and 72 h. Resistance values were calculated in Ohms (Ω)/cm 2 by multiplying the resistance values by the filter surface area. Results were expressed as percentage of the basal control values measured at time 0 h (100% values) for each condition.
(§1) Assays exposed cells to either TNFα only or TNFα+test composition. TNFα is known to cause tissue damage. A stock solution of recombinant TNF-α is prepared in sterile distilled water at 100 μg/ml. Thereafter, dilutions are made in keratinocyte culture medium. First dilution is 1/1000 to obtain 100 ng/ml. TNF-α and the test compounds are added simultaneously.
Keratinocyte barrier integrity was determined by monitoring transepithelial electrical resistance (TER). Briefly, keratinocytes (3×10^5 cells per insert; 0.1 ml) were seeded in the apical compartment of Costar™ Transwell™ clear polyester membrane inserts (6.5 mm in diameter, 0.4 μm pore size; Corning Co., Cambridge, Mass., USA), while the basolateral compartment was filled with 0.6 ml of culture medium. After 72-h of incubation, the conditioned culture medium was replaced with fresh antibiotic-free K-SFM, and the cells were further incubated for 16 h prior treating the cells. Recombinant human TNF-α (100 ng/ml; AnaSpec, Fremont, USA) and the formulations (final dilutions of 1/500, 1/1000, and 1/2000 (v/v for the aqueous solution; w/v for the dentifrice) under investigation were added to the apical compartment. The TER values were monitored using an ohm/voltmeter (EVOM^2; World Precision Instruments, Sarasota, Fla., USA) after 0, 6, 24, and 48 h of incubation. The TER values in Ohms (Ω)/cm^2 were determined by multiplying the resistance values by the surface area of the membrane filter. Results are expressed as the percentage of the basal control value measured at time 0-h (100% value).

[7] = system: B11 gingival keratinocytes treated with TNF-α; assay: FITC-dextran paracellular transport with TNF-α challenge; assay type: cell-based, human; conditions: TNF-α 100 ng/ml, 48-h exposure
Description: The ability of test composition samples to enhance epithelial barrier integrity was assessed by monitoring the paracellular transport of FITC-conjugated 4.4-kDa dextran (FD-4; Sigma-Aldrich Canada Ltd.) across the keratinocyte layer. Briefly, B11 cells were cultured on Transwell filters, and FD-4 ([…] in culture medium) was added in the apical compartment in the presence of the test composition under investigation. Fluorescence in the basolateral compartment was measured at 0, 4, 8, 24, and 48 h using a Synergy 2 microplate reader (BioTek Instrument, Winooski, Vt., USA).
as §1
Gingival keratinocytes were cultured in the apical chamber of Transwell™ inserts as described above. Immediately after adding fluorescein isothiocyanate-conjugated dextran of 4.4 kDa (FD-4; 1 mg/ml in culture medium) to the apical compartment, the formulations under investigation were added in presence of recombinant TNF-α (100 ng/ml). Fluorescence in the basolateral compartment was recorded after 0, 2, 6, 24, and 48 h of incubation using a Synergy 2 microplate reader (BioTek Instruments; Winooski, Vt., USA).

gingival keratinocytes [8] = assay: MTT colorimetric cell viability assay; assay type: cell-based, human
Description: The tight junction integrity of the B11 gingival keratinocytes was assessed by determining the transepithelial electrical resistance (TER). Briefly, B11 keratinocytes were seeded onto Costar™ Transwell™ clear polyester membrane inserts (6.5-mm diameter; 0.4-μm pore size; Corning Co., Cambridge, Mass., USA) at 3×10^5 cells per insert. The basolateral and apical compartments were filled with 0.6 mL and 0.1 mL of complete K-SFM, respectively, and the cultures were incubated for 3 days at 37° C. in a 5% CO2 atmosphere. The conditioned medium was then replaced with fresh antibiotic-free K-SFM. Following a further incubation (16 h), the TER values were measured using an Ohm/voltmeter (EVOM2; World Precision Instruments, Sarasota, Fla., USA) at 0, 2, 6, 24, and 48 h. Resistance values were calculated in Ohms (Ω)/cm^2 by multiplying the resistance values by the filter surface area. Results were expressed as a percentage of the basal control values measured at time 0 h (100% values) for each condition. […] The effect of these treatments on cell viability was assessed using an MTT (3-[4,5-[…]-2-yl]-2,5diphenyltetrazolim bromide) colorimetric assay, according to the manufacturer's instructions (Roche Diagnostics, Laval, QC, Canada).

gingival keratinocytes [9] = assay: Keratinocyte proliferation (CellTracker Green CMFDA); assay type: cell-based, human; conditions: TNF-α 100 ng/ml
Description: Gingival keratinocytes were seeded into wells (20,000 cells per well) of a 96-well microplate (0.1 ml/well) and incubated overnight at 37° C. in a 5% CO2 atmosphere to allow cell adhesion. The culture medium was then removed, and the cells were treated or not with TNF-α (100 ng/ml) with or without the formulations under investigation for 72 h at 37° C. in a 5% CO2 atmosphere. Cell proliferation was measured using the fluorescent CellTracker™ Green CMFDA (5-chloromethylfluorescein diacetate) Dye according to the manufacturer's instructions (Thermo Fisher Scientific). Untreated control cells were assigned a value of 100%. Briefly, after 24 h of stimulation, the supernatant was removed and the cells were washed with PBS. […] Fluorescent keratinocytes were also visualized using an inverted Olympus FS X100 fluorescent microscope.

[10] = system: P. gingivalis collagenase; assay: Proteolytic assay: collagen DQ degradation by P. gingivalis culture supernatant; assay type: biochemical, Porphyromonas gingivalis; conditions: Example 6, FIGS. 35, 38, 41; over 5 hours
Description: To determine the effects of formulations tested on the proteinase activity of P. gingivalis, a 48-h culture was centrifuged at 10 000×g for 10 min. […] The fluorescence corresponding to collagen degradation was monitored using a Synergy 2 microplate reader, with the excitation and emission wavelengths set at 495 nm and 525 nm, respectively. Test compounds or the fluorescent substrate alone were used as controls. For the proteolytic assay, the following ratio was used: 40% P. gingivalis supernatant+40% test compounds+20% DQ collagen. […]
To determine the effects of the Dual Zinc plus Arginine aqueous solution and dentifrice on the proteinase activity of P. gingivalis, a 48-h culture was centrifuged at 10 000×g for 10 min. Assay mixtures containing equal volumes of P. gingivalis culture supernatant, the fluorescent substrate collagen DQ™ (100 μg/mL; Molecular Probes, Eugene, Oreg., USA), and the Dual Zinc […] The fluorescence corresponding to collagen degradation was monitored using a Synergy 2 microplate reader, with the excitation and emission wavelengths set at 495 nm and 525 nm, respectively. Test compounds or the fluorescent substrate alone were used as controls. Leupeptin (1 μM) was used as a positive inhibitory control.

## [Zn] [zinc]
[1]
  epithelial barrier function (transepithelial electrical resistance): improve epithelial barrier function
[2]
  protection of intestinal epithelial barrier from Shigella flexneri: allows protection of the intestinal epithelial barrier from damage mediated by the pathogen Shigella flexneri

## N=C(N)NCCC[C@H](N)C(=O)O [Arginine, arginine]
[3]; tissues treated 3x over 3 days, then 0.5% SLS for 2 minutes, FIGS. 1-4
  effect on SLS-induced increase in tissue permeability (TER ratio): minimal effect
[4]
  intestinal mucosal barrier functions: improve the intestinal mucosal barrier functions

## theaflavins
[5]
  protection of gingival keratinocyte barrier against TNF-α-induced damage: prevented epithelial barrier disruption

## Nc1nc(N)nc(-c2cc(Cl)ccc2Cl)n1 [irsogladine maleate]
[5]
  protection of gingival keratinocyte barrier against TNF-α-induced damage: reversed the TNF-α-induced disruption of the gingival epithelial barrier

## TNF-α
[6]; 6 h
  decrease of TER by TNF-α: 25.8%
[6]; 24 h
  decrease of TER by TNF-α: 49.3%
[6]; 48 h
  decrease of TER by TNF-α: 85.1%
[7]
  increase of FD-4 transport by TNF-α: 50.8%
Gingival keratinocytes [8]
  viability of gingival keratinocytes (MTT): no significant loss of cell viability
Gingival keratinocytes [9]
  reduction of cell proliferation by TNF-α: 30.2%

## CC(=O)N[C@@H](CC(C)C)C(=O)N[C@@H](CC(C)C)C(=O)N[C@H](C=O)CCCNC(=N)N [Leupeptin, reference compound]
[10]
  inhibition of P. gingivalis collagenase activity: inhibited P. gingivalis collagenase activity

## CCCCCCCCCCCCOS(=O)(=O)[O-].[Na+] [SLS, Sodium Lauryl Sulfate, reference compound]
[3]; 0.5% SLS solution for 2 minutes
  tissue permeability after SLS treatment: increase in tissue permeability

## epigallocatechin-3-gallate
[5]
  protection of gingival keratinocyte barrier against TNF-α-induced damage: prevented epithelial barrier disruption
